Experimental data as given in patent US10905762B2, “Targeted nanoparticle conjugates” (CASE WESTERN RESERVE UNIVERSITY, priority 2011, dated 2021).

Assays:
[1] = target: EGFR (Homo sapiens, UniProt P00533); settings: binding to the EGFR; read-out: dissociation constant; cited from earlier work
[2] = system: glioma cancer cells; settings: stated as known; cited from earlier work
[3] = system: 9L.E29 cells; experiment: Cell viability assay using Trypan blue; assay type: cell-based, rat; settings: 1 μM of Pc 4 and 1 J/cm^2 of laser power
Text: Cell viability assays using Trypan blue for EGFpep-Au NP-Pc 4 treated cells further illustrated this point (FIG. 4C), showing not only an increase in the number of dead cancer cells, but possibly different pathways of cell death.

[4] = system: 9L.E29 cells; settings: free Pc 4, stated as known; cited from earlier work

| Substance | Kd [1] [nM] | localization of free Pc 4 (known) [2] | mode of cell death (Trypan blue staining) [3] | subcellular localization of Pc 4 (known) [4] |
| --- | --- | --- | --- | --- |
| YHWYGYTPQNVI [EGF peptide, YHWYGYTPQNVI-amide] | 22 | – | – | – |
| phthalocyanine 4 [free Pc 4] | – | known to locate in the mitochondria | caused most cancer cells to die very quickly | localize mainly in mitochondria with some additional localization within lysosomes |
